{Fluor} = fluorophore: 5-carboxyfluorescein (FAM) or Alexa Fluor 488
Assays:
Assay type in all cases: cell-based
DU145 cells [1] = test: Uptake of fluorophore-labeled oligonucleotides by flow cytometry
Procedure: FIG. 1 are graphs showing that AS1411 cell internalization is an active process. Cells were plated 18 h before uptake analysis. After incubation as described, cells were washed with ice-cold PBS, incubated with 1 μg/ml 7-AAD, harvested and resuspended in 1% paraformaldehyde containing 2 μg/ml actinomycin D, then analyzed by flow cytometry. (Panel A) DU145 cells were incubated at 37° C. with fresh complete DMEM medium containing 10 μM FL-AS1411 (black line) or 10 μM FL-CRO (gray line) for the time indicated. (Panel B) DU145 cells were incubated for 2 h at 37° C. in complete or serum-free DMEM medium containing 10 μM FL-AS1411, or 10 μM FL-CRO, or no oligonucleotide. (Panel C) Various cell lines were incubated with 10 μM FL-AS1411 (black outline histogram), 10 μM FL-CRO (gray outline histogram) or without DNA (solid gray histogram) at 37° C. or 4° C. for 2 h. All experiments were repeated at least three times. Data are mean of three independent samples; bars, SE; *(p<0.05).
FIG. 2 are graphs showing that AS1411 is internalized by different endocytic mechanisms in DU145 cancer cells and in non-malignant Hs27 cells. DU145 or Hs27 cells were plated 18 h before uptake analysis. Cells were pre-treated as described with inhibitor (gray histogram) or the corresponding vehicle control (black histogram) before addition of 10 μM FL-AS1411 and incubation at 37° C. for 2 h. After incubation, cells were harvested and analyzed by flow cytometry. Pre-treatment conditions were at 37° C. with: (Panel A) 5 μM Cytochalasin D for 30 min; (Panel B) 80 μM Dynasore for 30 min; or (Panel C) 3 mM amiloride for 1 h. All experiments were repeated at least three times and representative data are shown. Solid gray histograms represent background autofluorescence of unstained cells.
DU145 cells were transfected for 48 h without siRNA (mock, M), or with 30 nM of one of three different nucleolin siRNAs (NCL1, NCL2, NCL3) or a control siRNA (scramble, S), or contransfected with 10 nM of each nucleolin siRNAs (mix). (Panel A) Cells were lysed and total cell lyses were analyzed by Western blotting using the antibodies shown. (Panel B) Cell-surface proteins from intact transfected DU145 cells were labeled covalently with membrane-impermeable biotinylating agent. Cells were lysed, then biotinylated plasma membrane proteins were captured with streptavidin-agarose beads and analyzed by blotting with anti-nucleolin antibody (upper panel). After stripping, the membrane was reprobed with antibodies for a plasma membrane marker (anti-pan Cadherin) and a nuclear marker (anti-histone 3) to confirm the fractionation. Total lysate (Lys) was used as control. (Panel C) The medium of transfected cells was replaced by fresh complete DMEM medium containing no oligonucleotide (gray dashed histogram) or 10 μM FL-CRO (gray solid line histogram) or 10 μM FL-AS1411 (black solid line histogram) and incubated at 37° C. for 2 h. After incubation, cells were harvested and analyzed by flow cytometry.
DU145 cells were plated 18 hr before uptake analysis. Cell medium was changed with fresh complete DMEM medium containing different concentrations of FL-AS1411 (black line) or FL-CRO (gray line), and incubated at 37° C. for 2 hrs. After incubation, cells were harvested and analyzed by flow cytometry.
FIG. 9 are graphs showing the effects of inhibitors on various endocytic pathways. DU145 or Hs27 cells were plated 18 hr before uptake analysis. (Panel A) DU145 cells were pre-treated with dynamin inhibitor, […] Dynasore (black histogram) or DMSO (gray histogram) for 30 min at 37° C. After pre-treatment, cells were treated with […] transferrin conjugated with Alexa Fluor 488 for 30 min at 37° C. (Panel B) DU145 and Hs27 cells were pre-treated with 3 mM amiloride (black histogram) or vehicle (serum-free medium, gray histogram) for 1 h at 37° C. After pre-treatment, FL-CRO was added at a concentration of 10 μM and incubated at 37° C. for 2 h. After incubation, cells were harvested and analyzed by FACS. […]

DU145 cells [2] = test: Confocal microscopy localization and co-localization
Procedure: FIG. 3 are photographs showing that AS1411 co-localizes with the macropinocytic marker, dextran. DU145 or Hs27 cells were incubated with the reagents indicated, then washed and fixed. Nuclei were stained with DAPI (blue). The distribution of markers was visualized by confocal microscopy and fluorescent images were overlaid to determine co-localization as indicated by the yellow color. (Panel A) 10 μM AS1411 labeled with Alexa Fluor 488 (green) and 0.2 mg/ml dextran-10K, macropinocytic marker, labeled with Alexa Fluor 594 (red) for 2 h at 37° C. (Panel B) Experiments similar to those in Panel A but using FL-CRO in place of FL-AS1411. (Panel C) Cells incubated with 5 μg/ml transferrin labeled with Alexa Fluor 488 (green) and 0.2 mg/ml dextran-10K labeled with Alexa Fluor 594 (red) for 30 min at 37° C. (Panel D) DU145 cells incubated with 5 μg/ml transferrin labeled with Alexa Fluor 594 (red) and 10 μM AS1411 labeled with Alexa Fluor 488 (green) for 30 min at 37° C. Scale bars, 10 μm.
Cells (4×10^4) in fresh supplemented culture medium were plated on 18 mm diameter glass cover slips for 18 h. The media was removed and replaced with serum-free medium containing 10 μM oligodeoxynucleotide, dextran-10K, or transferrin and incubated as describe in the Description of the Drawings. After incubation, cells were washed 3 times with ice-cold PBS, fixed in 4% paraformaldehyde in PBS for 30 min at room temperature, and washed three times with PBS. After washing, the cover slips were mounted on glass slides with ProLong Antifade (Molecular Probes) according to the manufacturer's directions to inhibit photobleaching. Immunofluorescence was documented with an LSM 510 inverted confocal laser-scanning microscope (Carl Zeiss, Oberkochen, Germany) equipped with an Omnichrome argon-krypton laser. Images were obtained with a Zeiss Plan-Apo 63× oil immersion objective (1.4 NA).

A549 = test: Cell response to AS1411; details: Cancer, non-small cell lung
Excerpt: (§1) It has recently been discovered that AS1411 can stimulate macropinocytosis (MP) in cancer cells and this finding was verified by several different methods and in multiple cancer cell lines (Table 1).

CHO = test: Cell response to AS1411; details: Non-cancer, hamster ovary
Excerpt: as §1

DU145 = test: Cell response to AS1411
Excerpt: as §1

RCC4 = test: Cell response to AS1411; details: Cancer, renal cell
Excerpt: as §1

MCF7 = test: Cell response to AS1411; details: Cancer, breast
Excerpt: as §1

BEAS2B = test: Cell response to AS1411; details: Non-cancer, lung epithelial
Excerpt: as §1

MDA-MB-231 = test: Cell response to AS1411; details: Cancer, breast
Excerpt: as §1

Row | Substance | uptake compared with FL-AS1411 (DU145 cells [1]; 10 μM, 37° C., time course) | uptake compared with FL-AS1411 (confocal microscopy) (DU145 cells [2]; 10 μM, 2 h) | saturability of uptake (dose-response) (DU145 cells [1]; 37° C. for 2 hrs) | co-localization with transferrin (DU145 cells [2]; 5 μg/ml transferrin, 10 μM AS1411 labeled with Alexa Fluor 488, 30 min at 37° C.) | Cells respond? (A549) | Cells respond? (CHO) | sensitivity of cells to AS1411 (DU145) | Cells respond? (DU145; DU145, Cancer, prostate) | Cells respond? (RCC4) | Cells respond? (MCF7) | Cells respond? (BEAS2B) | Cells respond? (MDA-MB-231)
1 | 5′-Fluor-d(TTTCCTCCTCCTCCTTCTCCTCCTCCTCC) (DNA TTTCCTCCTCCTCCTTCTCCTCCTCCTCC; DNA, 5' {Fluor}, backbone and methylation of C not given here) [FL-CRO, reference compound] | consistently much lower than FL-AS1411 | much lower than FL-AS1411 |  |  |  |  |  |  |  |  |  | 
2 | 5′-d(GGTGGTGGTGGTTGTGGTGGTGGTGG) [AS1411] |  |  | did not appear to have saturable uptake | non-overlapping vesicles | Yes | No | sensitive | Yes | Yes | Yes | No | Yes
